The values below are quoted from earlier work in patent US20080161402A1, “Targeting the Reverse Mode of the Na+/Ca2+ Exchanger For the Treatment of Neurodegenerative Conditions” (ALLERGAN, INC., priority 2004, published 2008).

For this data set, the system named is Na+/Ca2+ exchanger. Particulars: variety of cell types including neurons; reverse vs forward mode.

Turning to `CS(=O)(=O)O.N=C(N)SCCc1ccc(OCc2ccc([N+](=O)[O-])cc2)cc1` [KB-R743, 2-[2-[4-(4-nitorbenzyloxy)phenyl]ethyl]isothiourea methanesulfonte], the “mode selectivity of Na+/Ca2+ exchanger block” value is given as “preferentially block the reverse mode”.
